Measured values from patent US20230285261A1, “FRAGRANCE COMPOSITION COMPRISING A FRAGRANCE COMPONET AND A NON-ODOROUS FRAGRANCE MODULATOR” (Coty Inc., priority 2020, published 2023).

From the text: Classical perfume contain a high % of ethanol to solubilize perfume raw materials.

SMILES: C[C@@H]1CC[C@H]2C(C)(C)[C@H]3C[C@@]12CC[C@@]3(C)O [Cerdol Crystals, Cedrol Crystals]
- Max Solubility in 83% Ethanol/17% Glucam solution: 0.431 g
- Max Solubility in 88% Ethanol/12% Water solution: 0.273 g
- solubility increase, glucam-containing vs classical ethanol solution: 57.8%
